This data set can be described thus: In vitro liver microsomal stability assay. Particulars: human liver microsomes 0.5 mg per mL, NADPH 2 mM, pH 7.4, 1 uM compound, 37° C.; relative to d0 (Example 1).
Protocol: In Vitro Liver Microsomal Stability Assay
Human liver microsomal stability assays were conducted at 0.5 mg per mL liver microsome protein with NADPH (2 mM, pH 7.4).
Reactions were initiated with the addition of NADPH cofactor and were stopped at 0, 5, 15, 20 or 30 min after cofactor addition with stop reagent, acetonitrile. After quenching, plates containing samples were vibrated for 10 min (600 rpm/min) and then centrifuged at 5594 g for 15 min. Supernatant fractions were analyzed by LC-MS/MS to determine the percent remaining and estimate the degradation half-life of the test compounds.
As for `COc1ccc(CCNCC(O)COc2cccc(C)c2)cc1OC` (stereo not shown) [Example 1, [2-(3,4-dimethoxyphenyl)ethyl][2-hydroxy-3-(3-methylphenoxy)propyl]amine, reference compound], the “Clearance % change over d0” value was found to be 0.00% and the “Half-life % change over d0” value came out at 0.00%.
As to `[2H]C([2H])([2H])Oc1ccc(CCNCC(O)COc2cccc(C)c2)cc1OC([2H])([2H])[2H]` (stereo not shown) [Example 2, [2-[3,4-bis(^2H6)methoxyphenyl]ethyl][2-hydroxy-3-(3-methylphenoxy)propyl]amine], the “Clearance % change over d0” value is listed as 1.68% and the “Half-life % change over d0” value is recorded as −1.65%.
Take `[2H]C([2H])([2H])c1cccc(OCC(O)CNCCc2ccc(OC)c(OC)c2)c1` (stereo not shown) [Example 3, [2-(3,4-dimethoxyphenyl)ethyl]([2-hydroxy-3-[3-(2H3)methylphenoxy]propyl])amine]: the “Clearance % change over d0” value is recorded as −4.71% and the “Half-life % change over d0” value is listed as 4.95%.
On to `[2H]C([2H])([2H])Oc1ccc(CCNCC(O)COc2cccc(C([2H])([2H])[2H])c2)cc1OC([2H])([2H])[2H]` (stereo not shown) [Example 4, [2-[3,4-bis(^2H6)methoxyphenyl]ethyl]([2-hydroxy-3-[3-(^2H3)methylphenoxy]propyl])amine], for which the “Clearance % change over d0” value is listed as −21.15% and the “Half-life % change over d0” value came out at 26.83%.
For `[2H]C([2H])([2H])Oc1ccc(CCNC([2H])([2H])C([2H])(O)C([2H])([2H])Oc2cccc(C)c2)cc1OC([2H])([2H])[2H]` (stereo not shown) [Example 5, 1-([2-[3,4-bis(^2H6)methoxyphenyl]ethyl]amino)-3-(3-methylphenoxy)(^2H5) propan-2-ol], the “Clearance % change over d0” value worked out at 0.85% and the “Half-life % change over d0” value is given as −0.84%.
